# From patent publication US20230167073A1 (Teijin Pharma Limited, priority 2020, published 2023)
# Biological target: T1, Human TRPC6 (Homo sapiens, UniProt Q9Y210)
# T1 construct: expressed in transfected cells
# T1 sequence (Q9Y210 1-931): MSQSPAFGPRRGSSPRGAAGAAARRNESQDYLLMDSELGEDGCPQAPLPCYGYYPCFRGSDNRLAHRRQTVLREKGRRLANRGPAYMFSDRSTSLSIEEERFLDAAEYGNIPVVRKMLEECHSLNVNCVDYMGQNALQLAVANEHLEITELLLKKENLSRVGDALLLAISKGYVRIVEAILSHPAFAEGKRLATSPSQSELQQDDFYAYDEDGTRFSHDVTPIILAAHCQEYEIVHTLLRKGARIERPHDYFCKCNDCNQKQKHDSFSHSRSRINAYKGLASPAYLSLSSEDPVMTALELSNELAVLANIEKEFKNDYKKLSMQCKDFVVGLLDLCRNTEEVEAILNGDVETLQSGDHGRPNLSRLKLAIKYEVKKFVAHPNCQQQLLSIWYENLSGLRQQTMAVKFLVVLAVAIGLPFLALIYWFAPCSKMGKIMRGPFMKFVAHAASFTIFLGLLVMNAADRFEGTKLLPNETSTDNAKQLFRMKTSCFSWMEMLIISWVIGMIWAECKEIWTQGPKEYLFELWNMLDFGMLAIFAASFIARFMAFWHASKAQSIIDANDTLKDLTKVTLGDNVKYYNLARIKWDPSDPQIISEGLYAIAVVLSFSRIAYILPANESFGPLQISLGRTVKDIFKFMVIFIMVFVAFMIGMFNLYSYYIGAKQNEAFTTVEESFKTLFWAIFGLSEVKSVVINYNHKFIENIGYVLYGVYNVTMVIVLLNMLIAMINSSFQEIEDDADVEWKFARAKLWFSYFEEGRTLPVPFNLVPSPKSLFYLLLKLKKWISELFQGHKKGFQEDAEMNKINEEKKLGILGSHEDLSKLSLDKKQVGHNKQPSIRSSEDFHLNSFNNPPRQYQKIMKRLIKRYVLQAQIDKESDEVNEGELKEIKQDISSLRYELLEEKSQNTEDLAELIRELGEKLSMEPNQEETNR
# Assay: Evaluation of TRPC6 channel inhibitory activity (1), FLIPR Calcium 5 Assay Kit, OAG stimulation (Compound Nos. 1-1293)
# Format: cell-based
# Settings: Human TRPC6 stably-expressing cells, OAG 30 μM, FLIPR Calcium 5 Assay Kit; read-out: Inhibitory activity (pIC50 class) (converted)
# How it was run: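 Readout is pIC50 from four-parameter logistic fitting of inhibition of the OAG-evoked (30 μM final) fluorescence calcium signal. Human TRPC6 stable cells are dye-loaded with probenecid, and compound is applied 20 min ahead of agonist.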
row,IC50 [nM],SMILES
1,< 10,"N#Cc1ccc(-c2ccc(CCN)cn2)c(Sc2cnnc(N3CCCC3)c2)c1 [compound 1244, 4-[5-(2-aminoethyl)pyridin-2-yl]-3-(6-pyrrolidin-1-ylpyridazin-4-yl)sulfanylbenzonitrile]"
2,10 to 1000,"N#Cc1ccc(-n2cc(CCN)cn2)c(Sc2cnnc(N3CCOCC3)c2)c1 [compound 1245, 4-[4-(2-aminoethyl)pyrazol-1-yl]-3-(6-morpholin-4-ylpyridazin-4-yl)sulfanylbenzonitrile]"
3,10 to 1000,"N#Cc1ccc(-n2cc(CCN)cn2)c(Sc2cnnc(N3CCCC3)c2)c1 [compound 1247, 4-[4-(2-aminoethyl)pyrazol-1-yl]-3-(6-pyrrolidin-1-ylpyridazin-4-yl)sulfanylbenzonitrile]"
4,10 to 1000,"Cc1nc(Sc2cc(C#N)ccc2-c2ccc(CCN)cn2)cc(N2CCOCC2)n1 [compound 1248, 4-[5-(2-aminoethyl)pyridin-2-yl]-3-(2-methyl-6-morpholin-4-ylpyrimidin-4-yl)sulfanylbenzonitrile]"
5,< 10,"Cc1nc(Sc2cc(C#N)ccc2-c2ccc(CCN)cn2)cc(N2CCCCC2)n1 [compound 1249, 4-[5-(2-aminoethyl)pyridin-2-yl]-3-(2-methyl-6-piperidin-1-ylpyrimidin-4-yl)sulfanylbenzonitrile]"
6,10 to 1000,"Cc1nc(Sc2cc(C#N)ccc2-c2ccc(CCN)cn2)cc(N2CCCC2)n1 [compound 1250, 4-[5-(2-aminoethyl)pyridin-2-yl]-3-(2-methyl-6-pyrrolidin-1-ylpyrimidin-4-yl)sulfanylbenzonitrile]"
7,10 to 1000,"Cc1nc(Sc2cc(C#N)ccc2-n2cc(CCN)cn2)cc(N2CCOCC2)n1 [compound 1251, 4-[4-(2-aminoethyl)pyrazol-1-yl]-3-(2-methyl-6-morpholin-4-ylpyrimidin-4-yl)sulfanylbenzonitrile]"
8,10 to 1000,"Cc1nc(Sc2cc(C#N)ccc2-n2cc(CCN)cn2)cc(N2CCCCC2)n1 [compound 1252, 4-[4-(2-aminoethyl)pyrazol-1-yl]-3-(2-methyl-6-piperidin-1-ylpyrimidin-4-yl)sulfanylbenzonitrile]"
9,10 to 1000,"Cc1nc(Sc2cc(C#N)ccc2-n2cc(CCN)cn2)cc(N2CCCC2)n1 [compound 1253, 4-[4-(2-aminoethyl)pyrazol-1-yl]-3-(2-methyl-6-pyrrolidin-1-ylpyrimidin-4-yl)sulfanylbenzonitrile]"
10,10 to 1000,"Cc1nc(Sc2cc(C#N)ccc2-c2ncc(CCN)cn2)cc(N2CCOCC2)n1 [compound 1254, 4-[5-(2-aminoethyl)pyrimidin-2-yl]-3-(2-methyl-6-morpholin-4-ylpyrimidin-4-yl)sulfanylbenzonitrile]"
11,< 10,"Cc1nc(Sc2cc(C#N)ccc2-c2ncc(CCN)cn2)cc(N2CCCCC2)n1 [compound 1255, 4-[5-(2-aminoethyl)pyrimidin-2-yl]-3-(2-methyl-6-piperidin-1-ylpyrimidin-4-yl)sulfanylbenzonitrile]"
12,10 to 1000,"Cc1nc(Sc2cc(C#N)ccc2-c2ncc(CCN)cn2)cc(N2CCCC2)n1 [compound 1256, 4-[5-(2-aminoethyl)pyrimidin-2-yl]-3-(2-methyl-6-pyrrolidin-1-ylpyrimidin-4-yl)sulfanylbenzonitrile]"
13,10 to 1000,"N#Cc1ccc(-c2ncc(CCN)cn2)c(Sc2cnnc(N3CCOCC3)c2)c1 [compound 1257, 4-[5-(2-aminoethyl)pyrimidin-2-yl]-3-(6-morpholin-4-ylpyridazin-4-yl)sulfanylbenzonitrile]"
14,< 10,"N#Cc1ccc(-c2ncc(CCN)cn2)c(Sc2cnnc(N3CCCCC3)c2)c1 [compound 1258, 4-[5-(2-aminoethyl)pyrimidin-2-yl]-3-(6-piperidin-1-ylpyridazin-4-yl)sulfanylbenzonitrile]"
15,< 10,"N#Cc1ccc(-c2ncc(CCN)cn2)c(Sc2cnnc(N3CCCC3)c2)c1 [compound 1259, 4-[5-(2-aminoethyl)pyrimidin-2-yl]-3-(6-pyrrolidin-1-ylpyridazin-4-yl)sulfanylbenzonitrile]"
16,10 to 1000,"Cc1cc(Sc2cc(C#N)ccc2-c2ncc(CCN)cn2)cc(N2CCOCC2)n1 [compound 1260, 4-[5-(2-aminoethyl)pyrimidin-2-yl]-3-(2-methyl-6-morpholin-4-ylpyridin-4-yl)sulfanylbenzonitrile]"

row,IC50 [nM],SMILES
1,> 1000,"Cc1cc(Sc2cc(C#N)ccc2-c2ncc(CN)cn2)cc(N2CCOCC2)n1 [compound 1261, 4-[5-(aminomethyl)pyrimidin-2-yl]-3-(2-methyl-6-morpholin-4-ylpyridin-4-yl)sulfanylbenzonitrile]"
2,> 1000,"Cc1nc(Sc2cc(C#N)ccc2-c2ncc(CN)cn2)cc(N2CCCC2)n1 [compound 1262, 4-[5-(aminomethyl)pyrimidin-2-yl]-3-(2-methyl-6-pyrrolidin-1-ylpyrimidin-4-yl)sulfanylbenzonitrile]"
3,> 1000,"Cc1nc(Sc2cc(C#N)ccc2-c2ncc(CN)cn2)cc(N(C)C)n1 [compound 1263, 4-[5-(aminomethyl)pyrimidin-2-yl]-3-[6-(dimethylamino)-2-methylpyrimidin-4-yl]sulfanylbenzonitrile]"
4,10 to 1000,"N#Cc1ccc(-c2ccc(CN)cn2)c(Sc2cnnc(N3CCCC3)c2)c1 [compound 1264, 4-[5-(aminomethyl)pyridin-2-yl]-3-(6-pyrrolidin-1-ylpyridazin-4-yl)sulfanylbenzonitrile]"
5,10 to 1000,"N#Cc1ccc(-c2ncc(CN)cn2)c(Sc2cnnc(N3CCCC3)c2)c1 [compound 1265, 4-[5-(aminomethyl)pyrimidin-2-yl]-3-(6-pyrrolidin-1-ylpyridazin-4-yl)sulfanylbenzonitrile]"
6,10 to 1000,"CN(C)c1cc(Sc2cc(C#N)ccc2-c2ccc(CN)cn2)cnn1 [compound 1266, 4-[5-(aminomethyl)pyridin-2-yl]-3-[6-(dimethylamino)pyridazin-4-yl]sulfanylbenzonitrile]"
7,> 1000,"CN(C)c1cc(Sc2cc(C#N)ccc2-c2ncc(CN)cn2)cnn1 [compound 1267, 4-[5-(aminomethyl)pyrimidin-2-yl]-3-[6-(dimethylamino)pyridazin-4-yl]sulfanylbenzonitrile]"
8,10 to 1000,"N#Cc1ccc(-c2ncc(CN)cn2)c(Sc2cnnc(N3CCCCC3)c2)c1 [compound 1268, 4-[5-(aminomethyl)pyrimidin-2-yl]-3-(6-piperidin-1-ylpyridazin-4-yl)sulfanylbenzonitrile]"
9,> 1000,"N#Cc1ccc(-c2ncc(CN)cn2)c(Sc2nnc(N3CCCCC3)s2)c1 [compound 1269, 4-[5-(aminomethyl)pyrimidin-2-yl]-3-[(5-piperidin-1-yl-1,3,4-thiadiazol-2-yl)sulfanyl]benzonitrile]"
10,10 to 1000,"N#Cc1ccc(-c2ncc(CCN)cn2)c(Sc2nnc(N3CCCCC3)s2)c1 [compound 1270, 4-[5-(2-aminoethyl)pyrimidin-2-yl]-3-[(5-piperidin-1-yl-1,3,4-thiadiazol-2-yl)sulfanyl]benzonitrile]"
11,> 1000,"N#Cc1ccc(-c2ncc(CN)cn2)c(Sc2nnc(N3CCOCC3)s2)c1 [compound 1271, 4-[5-(aminomethyl)pyrimidin-2-yl]-3-[(5-morpholin-4-yl-1,3,4-thiadiazol-2-yl)sulfanyl]benzonitrile]"
12,10 to 1000,"CC(C)Nc1cc(Sc2cc(C#N)ccc2-c2ncc(CN)cn2)cnn1 [compound 1272, 4-[5-(aminomethyl)pyrimidin-2-yl]-3-[6-(propan-2-ylamino)pyridazin-4-yl]sulfanylbenzonitrile]"
13,10 to 1000,"CC(C)CNc1cc(Sc2cc(C#N)ccc2-c2ncc(CN)cn2)cnn1 [compound 1273, 4-[5-(aminomethyl)pyrimidin-2-yl]-3-[6-(2-methylpropylamino)pyridazin-4-yl]sulfanylbenzonitrile]"
14,10 to 1000,"N#Cc1ccc(-c2ncc(CCN)cn2)c(Sc2sc(-c3ccccc3)nc2C#N)c1 [compound 1274, 5-[2-[5-(2-aminoethyl)pyrimidin-2-yl]-5-cyanophenyl]sulfanyl-2-phenyl-1,3-thiazole-4-carbonitrile]"
15,> 1000,"N#Cc1ccc(-c2ncc(CCN)cn2)c([S+]([O-])c2cnnc(-c3ccccc3)c2)c1 (centres unmarked) [compound 1275, 4-[5-(2-aminoethyl)pyrimidin-2-yl]-3-(6-phenylpyridazin-4-yl)sulfinylbenzonitrile]"
16,10 to 1000,"Cn1nc(-c2ccccc2)cc1Oc1cc(C#N)ncc1-c1ccc(CN)cn1 [compound 1278, 5-[5-(aminomethyl)pyridin-2-yl]-4-(2-methyl-5-phenylpyrazol-3-yl)oxypyridine-2-carbonitrile]"
